Test in all cases: inhibition of tumour cell growth, NCI panel, 48 h
Test [1] deals with ACHN renal.
For test [2], the system named is UO-31 renal.
The test system of test [3] is MALME-3M melanoma.
Test [4] deals with LOX IMVI melanoma.
Test [5] has as its system IGROV1 ovarian.
Test [6] relates to MOLT-4 leukemia.
The subject of test [7] is SF-268 CNS.
Test [8] concerns M14 melanoma.
For test [9], the system named is NCI-H226 lung.
Test [10] relates to SNB-75 CNS.

Several values for one entry are separate records, joined by “and”; a condition that tells them apart may be missing. Identical values can stand only once.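 Protocol summary: plate cells (96-well), add compound at 5 concentrations, incubate 48 h, interpolate endpoints linearly. The concentration for 50% growth inhibition is given as GI50. TGI: total growth inhibition.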 A value given as a limit tells only on which side of the number the result lay.

For the compound `Cn1ccnc1C(=O)/C=C/c1ccc(C(=O)Nc2ccccc2O)cc1`, the GI50 in test [1] is 1.99 µM; in [2], 1.24 µM; in [3] it was 1.63 µM; in test [4] it was 1.38 µM; in [5], 1.97 µM; in test [6] it was 2.38 µM. Also, the GI50 in [7] was 2.39 µM; in test [8], 1.82 µM; in [9], 2.35 µM; in test [10], 0.918 µM. Further, the TGI in test [1] was 4.01 µM; in test [2], 2.5 µM; in [3], 3.81 µM; in test [4] it was 3.12 µM; in test [5], 4.88 µM; in test [6], 8.18 µM. Moreover, the TGI in test [7] amounted to 7.2 µM; in test [8] it was 4.28 µM; in test [9], 7.8 µM; in [10], 8.58 µM.

For `Cc1ccc(NSc2ccccc2[N+](=O)[O-])cc1`, the GI50 is 2.3 µM in test [1]; 2.07 µM in test [2]; 3.21 µM in test [3]; 0.912 µM in test [4]; 1.25 µM in test [5]; 0.208 µM in [6]. The GI50 is 1.15 µM in test [7], 0.146 µM in test [8], 4.04 µM in test [9] and 0.557 µM in test [10]. Also, the TGI in test [1] is 23.4 µM; in [2] it was 16 µM; in test [3], 28.9 µM; in test [4], 18.5 µM; in [5], 28.2 µM; in test [6], greater than 62.7 µM. Also, the TGI was determined as 19.7 µM in test [7], 15.3 µM in test [8], 20.8 µM in test [9] and 9.32 µM in [10].

For `Cc1nc(N)sc1N=Nc1cc(Cl)c([N+](=O)[O-])cc1Cl`, the TGI in test [1] was 55.9 µM; in test [2], 66.9 µM; in [3] it was 32.7 µM; in test [4] it was 36.8 µM; in [5], 47.2 µM; in [6], 22.4 µM. Also, the TGI is 88.5 µM in test [7], greater than 100 µM in test [8], 44.4 µM in test [9] and 30.5 µM in test [10].

On to `N#Cc1c(NC(=O)c2cccc3ccccc23)sc2c1CCCC2`, for which the GI50 was 0.34 µM in [1]; 0.0174 µM in test [3]; 0.0625 µM in [4]; 0.177 µM in [5]; 0.102 µM in test [6]; 0.171 µM in [7]. Besides, the GI50 was 0.0249 µM in [8], 0.195 µM in [9] and 0.0351 µM in [10]. For the same compound, the TGI in test [1], in [3], in [4], in [5], in test [6] and in test [7] was greater than 25 µM each time. The TGI is 0.116 µM in test [8], greater than 25 µM in test [9] and greater than 25 µM in [10].

With `CCOP(=O)(OCC)/C(C#N)=C/c1ccc[nH]1`, the TGI in [1], in test [2], in [3], in test [4], in test [6] and in test [7] was greater than 100 µM throughout. For the same compound, the TGI in [8], in test [9] and in test [10] was greater than 100 µM in each case.

Turning to `O=C(Nc1cccnc1)c1cccc([N+](=O)[O-])c1`, the GI50 in test [1], in test [2], in [3], in test [4], in test [5] and in test [6] was greater than 100 µM in each case. The GI50 in [7], in [8], in [9] and in [10] was greater than 100 µM throughout. Also, the TGI in [1], in test [2], in [3], in test [4], in test [5] and in test [6] was greater than 100 µM in each case. The TGI in test [7], in [8], in test [9] and in test [10] was greater than 100 µM each time.

In the case of `CN(C)c1ccc(/C=C/c2ccnc3ccccc23)cc1N`, the TGI in test [1] stood at 24.1 µM; in test [2], 20.2 µM; in [3] it was 28.8 µM; in [4], 32.6 µM; in test [6], 25.5 µM; in test [7] it was 23.2 µM. In addition, the TGI in test [8] stood at 25.1 µM; in test [9], 36.5 µM; in test [10] it was 19.5 µM.

On to `Cn1cnc([N+](=O)[O-])c1Sc1nc2cccnc2s1`, for which the TGI in test [1] stood at 80.6 µM; in test [2], 34.1 µM; in test [3], 22 µM; in test [4] it was 60.5 µM; in test [5], 33 µM; in test [6], 23.6 µM. For the same compound, the TGI is 69.1 µM in test [7], 26.8 µM in test [8], 36.5 µM in test [9] and 65.8 µM in test [10].

On to `Cc1cc(NCCCCNc2ccnc3cc(Cl)ccc23)nc(Nc2ccc(C(=O)N3CCCC3)cc2)n1`, for which the GI50 was 3.6 µM in test [1]; 1.73 µM in test [2]; 1.89 µM in [3]; 1.48 µM in test [4]; 3.58 µM in [5]; 2.81 µM in test [6]. The GI50 was 2.1 µM in test [7], 1.96 µM in test [8], 5.13 µM in test [9] and 1.91 µM in test [10]. In addition, the TGI in test [1] was determined as 11.3 µM; in test [2], 4.16 µM; in test [3], 4.17 µM; in test [4] it was 3.05 µM; in test [5], 13.4 µM; in test [6], 11.6 µM. Also, the TGI in test [7] came to 6.21 µM; in [8], 3.87 µM; in test [9], 18.2 µM; in test [10] it was 3.76 µM.

For `COc1cc2c3c(n(CCCNC(=O)OCC4c5ccccc5-c5ccccc54)c(=O)c2cc1OC)-c1cc2c(cc1C3=O)OCO2`, the GI50 in test [1] is 0.376 µM; in test [2], greater than 100 µM; in [3], 93.3 µM; in test [4] it was 1.48 µM; in test [5], greater than 100 µM; in test [6], 8.07 µM. In addition, the GI50 was 16.6 µM in test [7], 36.8 µM in test [8], greater than 100 µM in test [9] and 34.8 µM in [10]. For the same compound, the TGI in test [1] is 6.25 µM; in [2], greater than 100 µM; in test [3] it was greater than 100 µM; in [4], greater than 37.1 µM; in [5], greater than 100 µM; in test [6], greater than 34.6 µM. Further, the TGI in test [7] was greater than 72.4 µM; in [8], greater than 100 µM; in [9], greater than 100 µM; in [10], greater than 86.4 µM.

`CS(=O)(=O)Nc1cccc(-c2ccc3c(NC(=O)C4CC4)n[nH]c3c2)c1`: the GI50 was 12.7 µM in test [1]; 24.8 µM in test [2]; greater than 4.93 µM in [3]; 1.82 µM in test [4]; 16.3 µM in test [5]; 6.27 µM in test [6]. Moreover, the GI50 in test [7] is 2.78 µM; in [8], 2.33 µM; in [9], 2.59 µM; in test [10] it was 4.6 µM. The TGI in test [1], in test [2], in test [3], in [4], in [5] and in test [6] was greater than 25 µM in each case. Further, the TGI in test [7], in test [8], in test [9] and in test [10] was greater than 25 µM throughout.

Regarding `COc1ccc2c(c1)C(=O)/C(=C/c1ccc([N+](=O)[O-])s1)O2`, the GI50 in test [1] was 0.263 µM; in [2] it was 0.232 µM; in test [3], 0.451 µM; in test [4], 0.256 µM; in test [5] it was 0.349 µM; in [6] it was 0.867 µM. Besides, the GI50 in [7] is 0.268 µM; in test [8] it was 0.358 µM; in test [9], 1.91 µM; in [10] it was 0.627 µM. For the same compound, the TGI is 0.722 µM in test [1]; 0.614 µM in [2]; 1.76 µM in test [3]; 0.637 µM in test [4]; 1.2 µM in test [5]; greater than 33.7 µM in [6]. The TGI in [7] was 0.66 µM; in test [8], 1.31 µM; in test [9], 4.81 µM; in test [10] it was 2.47 µM.

As to `CC1CC(=O)C(CC(=O)O)C1C(C(=O)C(=O)Nc1c(C#N)cccc1[N+](=O)[O-])[N+](=O)[O-]` (stereo not given), the TGI in [1], in [2], in test [3], in test [4], in test [5] and in [6] was greater than 100 µM in each case. In addition, the TGI in [7], in test [8], in test [9] and in test [10] was greater than 100 µM in each case.

For the compound `COc1cc(OC)c2cc(C(=O)O)c(=O)oc2c1`, the GI50 in test [1] is greater than 100 µM; in test [2], greater than 61.7 µM; in test [3], greater than 100 µM; in [4], greater than 100 µM; in test [5] it was greater than 84.9 µM; in test [6], greater than 100 µM. Moreover, the GI50 in test [7], in test [8], in [9] and in [10] was greater than 100 µM throughout. The TGI in test [1], in test [2], in test [3], in [4], in test [5] and in test [6] was greater than 100 µM each time. Moreover, the TGI in test [7], in [8], in test [9] and in test [10] was greater than 100 µM each time.

As for `COC(=O)c1cc2c3ccccc3n3c(=O)c4cc5cc(OC)c(N(S(=O)(=O)c6ccc(C)cc6)S(=O)(=O)c6ccc(C)cc6)cc5nc4c(n1)c23`, the GI50 in test [1] is 6.03 µM; in [3], greater than 100 µM; in test [4] it was 23.5 µM; in test [6] it was 35.2 µM; in test [7], 7.78 µM; in test [8], 32.7 µM. The GI50 in [9] is 23.9 µM; in test [10], 3.99 µM. For the same compound, the TGI in test [1] is 22.2 µM; in [3] it was greater than 100 µM; in [4] it was greater than 100 µM; in [6] it was greater than 100 µM; in [7], greater than 100 µM; in [8], greater than 100 µM. The results for the TGI in test [9] and in test [10] were greater than 100 µM and 20.4 µM, respectively.

Consider `CO/N=C(\COc1ccc2c(c1)oc(=O)c1cc(OC)ccc12)c1cccc(OC)c1`, for which the GI50 in test [2], in test [3], in test [4], in test [5], in test [6] and in test [7] was greater than 100 µM throughout. The GI50 in test [8], in test [9] and in test [10] was greater than 100 µM in each case. In addition, the TGI in test [2], in test [3], in test [4], in [5], in test [6] and in [7] was greater than 100 µM each time. Also, the TGI in [8], in test [9] and in [10] was greater than 100 µM throughout.

On to `COc1ccc2cc3[n+](cc2c1OC)CCc1cc2c(cc1-3)OCO2`, for which the TGI in test [1] is greater than 100 µM; in [3] it was 27.8 µM [middle of 5 runs]; in test [4], greater than 201 µM; in [5] it was > 100 µM and 137 µM; in test [9] it was > 100 µM and 94.9 µM and 67.5 µM. Further, the GI50 was 2.24 µM and 5.1 µM in test [3]; 18.4 µM in [5]; 4.68 µM in test [7]; 16.9 µM in test [8]; 21.4 µM in [10].

(Values after PubChem BioAssay (NCI).)
